Measurements taken from ChEMBL document CHEMBL1140912, “Extra binding region induced by non-zinc chelating inhibitors into the S1' subsite of matrix metalloproteinase 8 (MMP-8)” (J Med Chem, 2009).
pIC50: −log10 of the molar value.

Legend:
Matrilysin = target: T1, Matrilysin (Homo sapiens, UniProt P09237); test: Inhibition of human recombinant MMP7
T1 sequence (P09237 whole entry): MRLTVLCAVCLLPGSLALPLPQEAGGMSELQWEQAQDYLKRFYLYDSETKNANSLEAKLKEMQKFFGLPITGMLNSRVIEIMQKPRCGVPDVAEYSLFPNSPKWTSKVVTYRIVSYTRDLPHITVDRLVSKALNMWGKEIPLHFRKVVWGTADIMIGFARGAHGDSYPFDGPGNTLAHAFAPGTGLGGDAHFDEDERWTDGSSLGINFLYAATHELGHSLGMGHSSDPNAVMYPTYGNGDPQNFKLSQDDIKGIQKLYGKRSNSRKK

Collagenase 3 = Collagenase 3 (Homo sapiens, UniProt P45452); test: Inhibition of human recombinant MMP13
[1] = target: Matrix metalloproteinase-14 (Homo sapiens, UniProt P50281); test: Inhibition of human recombinant MMP14
[2] = target: Macrophage metalloelastase (Homo sapiens, UniProt P39900); test: Inhibition of human recombinant MMP12
Interstitial collagenase = target: T2, Interstitial collagenase (Homo sapiens, UniProt P03956); test: Inhibition of human recombinant MMP1
T2 sequence (P03956 whole entry): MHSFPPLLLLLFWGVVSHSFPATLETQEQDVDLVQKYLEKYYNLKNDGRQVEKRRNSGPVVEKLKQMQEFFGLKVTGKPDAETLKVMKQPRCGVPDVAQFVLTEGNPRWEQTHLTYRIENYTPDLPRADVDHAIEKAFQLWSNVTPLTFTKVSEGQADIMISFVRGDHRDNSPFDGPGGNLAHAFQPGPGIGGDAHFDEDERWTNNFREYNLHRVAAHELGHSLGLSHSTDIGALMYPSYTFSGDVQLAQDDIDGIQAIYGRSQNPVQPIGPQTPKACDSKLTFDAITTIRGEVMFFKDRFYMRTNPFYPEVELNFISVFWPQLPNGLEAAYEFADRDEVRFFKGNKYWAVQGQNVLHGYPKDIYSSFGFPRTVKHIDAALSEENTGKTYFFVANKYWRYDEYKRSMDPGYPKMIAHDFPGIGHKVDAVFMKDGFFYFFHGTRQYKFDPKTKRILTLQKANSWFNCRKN

Stromelysin-1 = Stromelysin-1 (Homo sapiens, UniProt P08254); test: Inhibition of human recombinant MMP3
[3] = target: 72 kDa type IV collagenase (Homo sapiens, UniProt P08253); test: Inhibition of human recombinant MMP2
[4] = target: Matrix metalloproteinase-9 (Homo sapiens, UniProt P14780); test: Inhibition of human recombinant MMP9
Chain of Matrix metalloproteinase-9 (P14780 whole entry): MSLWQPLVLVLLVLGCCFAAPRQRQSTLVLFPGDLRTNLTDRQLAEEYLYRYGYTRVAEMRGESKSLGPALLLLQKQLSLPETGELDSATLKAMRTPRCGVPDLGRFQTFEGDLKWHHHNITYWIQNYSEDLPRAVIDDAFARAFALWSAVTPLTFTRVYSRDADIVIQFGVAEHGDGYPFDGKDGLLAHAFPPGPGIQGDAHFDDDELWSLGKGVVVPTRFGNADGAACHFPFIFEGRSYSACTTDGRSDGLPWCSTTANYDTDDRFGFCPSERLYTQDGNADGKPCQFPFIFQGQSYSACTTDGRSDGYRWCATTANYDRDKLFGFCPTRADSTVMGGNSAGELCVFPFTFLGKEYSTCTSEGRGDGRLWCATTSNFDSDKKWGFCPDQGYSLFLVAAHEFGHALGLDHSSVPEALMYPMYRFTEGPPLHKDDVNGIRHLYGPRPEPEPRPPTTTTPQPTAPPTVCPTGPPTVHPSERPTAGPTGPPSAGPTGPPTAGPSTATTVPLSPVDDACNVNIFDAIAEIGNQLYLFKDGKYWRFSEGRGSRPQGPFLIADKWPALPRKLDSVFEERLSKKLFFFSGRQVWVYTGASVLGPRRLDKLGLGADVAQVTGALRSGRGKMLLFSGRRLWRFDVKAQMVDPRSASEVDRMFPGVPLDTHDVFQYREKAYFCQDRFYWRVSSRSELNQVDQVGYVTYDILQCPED

Chain of Macrophage metalloelastase (P39900 whole entry): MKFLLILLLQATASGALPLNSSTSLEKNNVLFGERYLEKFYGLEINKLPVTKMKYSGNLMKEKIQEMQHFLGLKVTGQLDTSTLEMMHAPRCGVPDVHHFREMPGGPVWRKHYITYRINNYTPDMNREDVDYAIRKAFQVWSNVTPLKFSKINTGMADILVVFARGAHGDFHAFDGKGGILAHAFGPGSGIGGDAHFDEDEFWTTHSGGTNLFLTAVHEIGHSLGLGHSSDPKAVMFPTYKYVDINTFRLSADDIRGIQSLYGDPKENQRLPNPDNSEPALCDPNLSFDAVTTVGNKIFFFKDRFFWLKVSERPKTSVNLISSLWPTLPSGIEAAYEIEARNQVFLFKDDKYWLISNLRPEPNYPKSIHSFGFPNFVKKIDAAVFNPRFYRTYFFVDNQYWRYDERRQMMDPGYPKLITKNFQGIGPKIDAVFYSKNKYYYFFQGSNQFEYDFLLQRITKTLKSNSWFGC
Chain of Stromelysin-1 (P08254 whole entry): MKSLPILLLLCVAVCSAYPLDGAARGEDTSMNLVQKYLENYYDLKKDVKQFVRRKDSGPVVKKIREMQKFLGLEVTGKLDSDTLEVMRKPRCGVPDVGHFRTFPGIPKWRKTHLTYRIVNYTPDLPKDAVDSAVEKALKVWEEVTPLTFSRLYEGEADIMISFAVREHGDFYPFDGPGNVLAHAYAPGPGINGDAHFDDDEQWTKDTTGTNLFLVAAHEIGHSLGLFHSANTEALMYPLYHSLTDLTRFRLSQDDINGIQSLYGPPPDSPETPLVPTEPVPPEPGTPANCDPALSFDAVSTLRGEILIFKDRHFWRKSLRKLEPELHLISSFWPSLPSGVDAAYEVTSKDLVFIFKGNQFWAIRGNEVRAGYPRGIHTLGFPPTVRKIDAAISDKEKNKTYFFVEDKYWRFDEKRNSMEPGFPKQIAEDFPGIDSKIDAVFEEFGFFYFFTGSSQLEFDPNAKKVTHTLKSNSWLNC
Chain of 72 kDa type IV collagenase (P08253 whole entry): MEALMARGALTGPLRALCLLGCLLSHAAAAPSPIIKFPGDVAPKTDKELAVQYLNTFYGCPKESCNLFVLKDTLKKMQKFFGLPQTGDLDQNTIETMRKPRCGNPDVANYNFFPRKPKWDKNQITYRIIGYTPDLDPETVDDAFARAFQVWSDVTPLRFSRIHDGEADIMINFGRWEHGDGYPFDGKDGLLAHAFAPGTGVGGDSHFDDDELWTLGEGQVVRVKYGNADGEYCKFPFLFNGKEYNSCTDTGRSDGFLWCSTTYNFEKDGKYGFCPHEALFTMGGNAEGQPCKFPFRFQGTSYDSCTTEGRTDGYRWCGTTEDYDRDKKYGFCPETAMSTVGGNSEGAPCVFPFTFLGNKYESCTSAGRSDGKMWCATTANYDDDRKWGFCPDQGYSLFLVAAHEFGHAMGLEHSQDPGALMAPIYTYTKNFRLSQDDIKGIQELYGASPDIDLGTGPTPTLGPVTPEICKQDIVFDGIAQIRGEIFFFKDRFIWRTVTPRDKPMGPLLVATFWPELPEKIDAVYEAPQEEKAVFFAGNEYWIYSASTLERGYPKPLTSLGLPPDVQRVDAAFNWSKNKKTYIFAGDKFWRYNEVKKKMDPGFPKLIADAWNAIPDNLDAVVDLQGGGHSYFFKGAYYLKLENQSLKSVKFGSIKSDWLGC

SMILES: NC(=O)CC1CCCc2sc3nc(C(=O)NCc4ccc5c(c4)NC(=O)CO5)[nH]c(=O)c3c21 (racemic)
- pIC50 (Matrilysin): < 5.00
- pIC50 (Collagenase 3): > 7.60
- pIC50 [1]: < 5.00
- pIC50 [2]: < 5.00
- pIC50 (Interstitial collagenase): < 5.00
- pIC50 (Stromelysin-1): < 5.60
- pIC50 [3]: < 5.00
- pIC50 [4]: < 5.00
